pIC50: −log10 of the molar value.
Tested on: 439559-082-T-J2-PDC spheroids viability
Assay: Anticancer human tumor 439559-082-T-J2-PDC patient-derived colon adenocarcinoma cell line growth inhibition [GQUAD]
Details: for pIC50: curve of first compound; for viability, T/C: stronger effect = lower value
In short: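 Tumor cells were grown as complex spheroids with HUVEC endothelial cells and mesenchymal stem cells as stroma. G-quadruplex stabilizers were combined with targeted agents over half-log dilutions from near the clinical Cmax, or from 10 microM.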

[1] = second compound 0.0316 µM, first compound 0.0316 µM
[2] = second compound 0.0316 µM, first compound 0.1 µM
[3] = second compound 0.0316 µM, first compound 0.316 µM
[4] = second compound 0.0316 µM, first compound 1 µM
[5] = second compound 0.0316 µM, first compound 3.16 µM
[6] = second compound 0.0316 µM, first compound 10 µM
[7] = second compound 0.1 µM, first compound 0.0316 µM
[8] = second compound 0.1 µM, first compound 0.1 µM
[9] = second compound 0.1 µM, first compound 0.316 µM
[10] = second compound 0.1 µM, first compound 1 µM
[11] = second compound 0.1 µM, first compound 3.16 µM
[12] = second compound 0.1 µM, first compound 10 µM
[13] = second compound 0.316 µM, first compound 0.0316 µM
[14] = second compound 0.316 µM, first compound 0.1 µM
[15] = second compound 0.316 µM, first compound 0.316 µM
[16] = second compound 0.316 µM, first compound 1 µM
[17] = second compound 0.316 µM, first compound 3.16 µM
[18] = second compound 0.316 µM, first compound 10 µM
[19] = second compound 1 µM, first compound 0.0316 µM
[20] = second compound 1 µM, first compound 0.1 µM
[21] = second compound 1 µM, first compound 0.316 µM
[22] = second compound 1 µM, first compound 1 µM
[23] = second compound 1 µM, first compound 3.16 µM
[24] = second compound 1 µM, first compound 10 µM
[25] = second compound 3.16 µM, first compound 0.0316 µM
[26] = second compound 3.16 µM, first compound 0.1 µM
[27] = second compound 3.16 µM, first compound 0.316 µM
[28] = second compound 3.16 µM, first compound 1 µM
[29] = second compound 3.16 µM, first compound 3.16 µM
[30] = second compound 3.16 µM, first compound 10 µM
[31] = second compound 10 µM, first compound 0.0316 µM
[32] = second compound 10 µM, first compound 0.1 µM
[33] = second compound 10 µM, first compound 0.316 µM
[34] = second compound 10 µM, first compound 1 µM
[35] = second compound 10 µM, first compound 3.16 µM
[36] = second compound 10 µM, first compound 10 µM
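Further: spheroids exposed to the agents for 7 days before readout.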
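Wherever viability, T/C is given: percent of luminescence signal in DMSO vehicle wells taken as 100% viability.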

CC1COCCN1c1cc(-c2ccnn2C)c2ccnc(-c3ccn[nH]3)c2n1 (centres undefined) + Cc1[nH]c2ccc(F)cc2c1-c1nc2c3cccnc3c3ncccc3c2[nH]1
pIC50 (second compound 0.0316 µM): 6.37
pIC50 (second compound 0.1 µM): 6.57
pIC50 (second compound 0.316 µM): 6.53
pIC50 (second compound 1 µM): 6.56
pIC50 (second compound 3.16 µM): 6.64
pIC50 (second compound 10 µM): 6.68
viability, T/C [1]: 106%
viability, T/C [2]: 80.6%
viability, T/C [3]: 53.5%
viability, T/C [4]: 38.8%
viability, T/C [5]: 35.8%
viability, T/C [6]: 30.7%
viability, T/C [7]: 103%
viability, T/C [8]: 77.2%
viability, T/C [9]: 45.7%
viability, T/C [10]: 36.9%
viability, T/C [11]: 40.8%
viability, T/C [12]: 34.5%
viability, T/C [13]: 101%
viability, T/C [14]: 87.4%
viability, T/C [15]: 47.8%
viability, T/C [16]: 34%
viability, T/C [17]: 41.6%
viability, T/C [18]: 30.2%
viability, T/C [19]: 91.6%
viability, T/C [20]: 82%
viability, T/C [21]: 46%
viability, T/C [22]: 31.9%
viability, T/C [23]: 39.6%
viability, T/C [24]: 29.8%
viability, T/C [25]: 88.2%
viability, T/C [26]: 73.5%
viability, T/C [27]: 40.6%
viability, T/C [28]: 30.3%
viability, T/C [29]: 34.1%
viability, T/C [30]: 27.4%
viability, T/C [31]: 76.1%
viability, T/C [32]: 73.5%
viability, T/C [33]: 36.8%
viability, T/C [34]: 31.6%
viability, T/C [35]: 32.8%
viability, T/C [36]: 29.6%

CC1COCCN1c1cc(C2(O)CC3CCC(C2)O3)c2cnn(-c3ccn[nH]3)c2n1 (centres undefined) + Cc1[nH]c2ccc(F)cc2c1-c1nc2c3cccnc3c3ncccc3c2[nH]1
pIC50 (second compound 0.0316 µM): 5.77
pIC50 (second compound 0.1 µM): 5.59
pIC50 (second compound 0.316 µM): 5.84
pIC50 (second compound 1 µM): 5.83
pIC50 (second compound 3.16 µM): 6.06
pIC50 (second compound 10 µM): 6.06
viability, T/C [1]: 84.5%
viability, T/C [2]: 84.2%
viability, T/C [3]: 78.2%
viability, T/C [4]: 58.6%
viability, T/C [5]: 38.9%
viability, T/C [6]: 39.5%
viability, T/C [7]: 89.5%
viability, T/C [8]: 76.3%
viability, T/C [9]: 71.1%
viability, T/C [10]: 61.9%
viability, T/C [11]: 46.7%
viability, T/C [12]: 35.2%
viability, T/C [13]: 97.2%
viability, T/C [14]: 80.2%
viability, T/C [15]: 70.8%
viability, T/C [16]: 49.9%
viability, T/C [17]: 44.6%
viability, T/C [18]: 37.3%
viability, T/C [19]: 83.8%
viability, T/C [20]: 77.3%
viability, T/C [21]: 70.2%
viability, T/C [22]: 55%
viability, T/C [23]: 40.3%
viability, T/C [24]: 33.4%
viability, T/C [25]: 85.7%
viability, T/C [26]: 67.8%
viability, T/C [27]: 63.5%
viability, T/C [28]: 51%
viability, T/C [29]: 32.8%
viability, T/C [30]: 27%
viability, T/C [31]: 75.4%
viability, T/C [32]: 74.5%
viability, T/C [33]: 57.1%
viability, T/C [34]: 52.1%
viability, T/C [35]: 33.4%
viability, T/C [36]: 27.1%
